Experimental data: patent US20240109930A1, “TRIAZOLYL-METHYL SUBSTITUTED ALPHA-D-GALACTOPYRANOSIDE DERIVATIVES” (Idorsia Pharmaceuticals Ltd, priority 2021, published 2024)

Assays:
human Gal-3 (hGal-3) = human Gal-3 (hGal-3) (Homo sapiens (Human), UniProt P17931); experiment: Competitive binding assay: biotinylated hGal-3 binding to microplate-adsorbed asialofetuin (ASF); settings: IC50 values from several measurements given as geomean
Method: (§1) The inhibitory activity of compounds is determined in competitive binding assays. This spectrophotometric assay measures the binding of biotinylated human Gal-3 (hGal-3) or human Gal-1 (hGal-1), respectively, to a microplate-adsorbed glycoprotein, asialofetuin (ASF) (Proc Natl Acad Sci USA. 2013 Mar. 26; 110(13):5052-7.). Alternatively, and preferably, a human Gal-1 version in which all six cysteines are substituted by serines may be used.
(§2) Briefly, compounds are serially diluted in DMSO (working dilutions). ASF-coated 384well plates are supplemented with 22.8 μL/well of biotinylated hGal-3 or hGal-1 in assay buffer (i.e. 300-1000 ng/mL biotinylated hGal-3 or hGal-1) to which 1.2 μL of compound working dilutions are added and mixed.
(§3) Plates are incubated for 3 hours at 4° C., then washed with cold assay buffer (3×50 uL), incubated for 1 hour with 25 μL/well of a streptavidin-peroxidase solution (diluted in assay buffer to 80 ng/mL) at 4° C., followed by further washing steps with assay buffer (3×50 uL). Finally, 25 μL/well of ABTS substrate is added.
(§4) The calculated IC50 values may fluctuate depending on the daily assay performance. Fluctuations of this kind are known to those skilled in the art. IC50 values from several measurements are given as geomean values.

human Gal-1 (hGal-1) = human Gal-1 (hGal-1) (Homo sapiens, UniProt P09382, C131S/C17S/C43S/C61S/C89S); experiment: Competitive binding assay: biotinylated hGal-1 binding to microplate-adsorbed asialofetuin (ASF); settings: IC50 values from several measurements given as geomean
Method: as §1, §2, §3, §4

Chain of human Gal-3 (hGal-3) (P17931 whole entry): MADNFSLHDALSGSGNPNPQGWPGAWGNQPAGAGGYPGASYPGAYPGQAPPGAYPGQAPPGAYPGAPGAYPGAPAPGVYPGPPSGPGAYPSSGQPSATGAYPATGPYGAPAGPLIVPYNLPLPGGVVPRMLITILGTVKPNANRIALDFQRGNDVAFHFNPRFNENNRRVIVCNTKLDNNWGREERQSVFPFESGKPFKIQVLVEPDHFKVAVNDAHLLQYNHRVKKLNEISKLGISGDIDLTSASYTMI

SMILES	IC50 (human Gal-3 (hGal-3)) [nM]	IC50 (human Gal-1 (hGal-1)) [nM]
CO[C@@H]1[C@@H](n2cc(-c3ccc(Cl)c(F)c3F)nn2)[C@@H](O)[C@@H](CO)O[C@@H]1Cc1cn([C@@H]2CCCC2(F)F)nn1 [Example 2.1.64.A, (2R,3R,4S,5R,6R)-4-(4-(4-chloro-2,3-difluorophenyl)-1H-1,2,3-triazol-1-yl)-6-((1-((R)-2,2-difluorocyclopentyl)-1H-1,2,3-triazol-4-yl)methyl)-2-(hydroxymethyl)-5-methoxytetrahydro-2H-pyran-3-ol]	30	940
CO[C@@H]1[C@@H](n2cc(-c3ccc(F)c(F)c3F)nn2)[C@@H](O)[C@@H](CO)O[C@@H]1Cc1cn(C2CCC23CCC3)nn1 (stereo partly shown) [Ex 3.1.82.]	50	370
COC1=C(N2CC(c3ccc(Br)c(F)c3F)NN2)C(O)=C(CO)O[C@@H]1Cn1cc(C23CCC(NC(=O)OC(C)(C)C)(CC2)CC3)nn1 (stereo partly shown) [Ex 4.2.37.]	50	11300
CO[C@@H]1[C@@H](n2cc(-c3ccc(Br)c(F)c3F)nn2)[C@@H](O)[C@@H](CO)O[C@@H]1Cn1cc(C2(C)COC2)nn1 [Ex 4.2.6.]	70	2530
CO[C@@H]1[C@@H](n2cc(-c3ccc(Br)c(F)c3F)nn2)[C@@H](O)[C@@H](CO)O[C@@H]1Cc1cn(C2(C)CC(F)(F)C2)nn1 [Ex 4.1.15.]	50	2410
CO[C@@H]1[C@@H](n2cc(-c3ccc(Cl)c(F)c3F)nn2)[C@@H](O)[C@@H](CO)O[C@@H]1Cc1cn([C@H]2CCOC[C@@H]2F)nn1 [Example 2.1.66.D, (2R,3R,4S,5R,6R)-4-(4-(4-chloro-2,3-difluorophenyl)-1H-1,2,3-triazol-1-yl)-6-((1-((3R,4S)-3-fluorotetrahydro-2H-pyran-4-yl)-1H-1,2,3-triazol-4-yl)methyl)-2-(hydroxymethyl)-5-methoxytetrahydro-2H-pyran-3-ol]	10	780
CO[C@@H]1[C@@H](n2cc(-c3ccc(Cl)c(F)c3F)nn2)[C@@H](O)[C@@H](CO)O[C@@H]1Cc1cn(C2(C)COC2)nn1 [Ex 2.1.6.]	40	760
CO[C@@H]1[C@@H](n2cc(-c3ccc(Cl)c(F)c3F)nn2)[C@@H](O)[C@@H](CO)O[C@@H]1Cc1cn(C2COCC2(F)F)nn1 (mixture of isomers) [Example 2.1.90.A]	30	1130
CO[C@@H]1[C@@H](n2cc(-c3ccc(Br)c(F)c3F)nn2)[C@@H](O)[C@@H](CO)O[C@@H]1Cc1cn(C2(CF)COC2)nn1 [Ex 4.1.52., (2R,3R,4S,5R,6R)-4-(4-(4-bromo-2,3-difluorophenyl)-1H-1,2,3-triazol-1-yl)-6-((1-(3-(fluoromethyl)oxetan-3-yl)-1H-1,2,3-triazol-4-yl)methyl)-2-(hydroxymethyl)-5-methoxytetrahydro-2H-pyran-3-ol]	30	850
CO[C@@H]1[C@@H](n2cc(-c3ccc(Cl)c(F)c3F)nn2)[C@@H](O)[C@@H](CO)O[C@@H]1Cc1cn([C@@H]2COC[C@H]2F)nn1 (single isomer, unassigned) [Example 2.1.74.C, (2R,3R,4S,5R,6R)-4-(4-(4-chloro-2,3-difluorophenyl)-1H-1,2,3-triazol-1-yl)-6-((1-((3R*,4S*)-4-fluorotetrahydrofuran-3-yl)-1H-1,2,3-triazol-4-yl)methyl)-2-(hydroxymethyl)-5-methoxytetrahydro-2H-pyran-3-ol]	60	3940
COCC1(n2cc(C[C@H]3O[C@H](CO)[C@H](O)[C@H](n4cc(-c5ccc(Br)c(F)c5F)nn4)[C@H]3OC)nn2)CCC1 [Ex 4.1.21.]	70	1530
CO[C@@H]1[C@@H](n2cc(-c3ccc(Br)c(F)c3F)nn2)[C@@H](O)[C@@H](CO)O[C@@H]1Cc1cn(C2(C(F)F)COC2)nn1 [Ex 4.1.53.]	20	650
CO[C@@H]1[C@@H](n2cc(-c3ccc(Br)c(F)c3F)nn2)[C@@H](O)[C@@H](CO)O[C@@H]1Cc1cn(C2(C)CC2)nn1 [Ex 4.1.23.]	30	1800
CO[C@@H]1[C@@H](n2cc(-c3ccc(Br)c(F)c3F)nn2)[C@@H](O)[C@@H](CO)O[C@@H]1Cc1cn(C2(CF)CCC2)nn1 [Ex 4.1.40., (2R,3R,4S,5R,6R)-4-(4-(4-bromo-2,3-difluorophenyl)-1H-1,2,3-triazol-1-yl)-6-((1-(1-(fluoromethyl)cyclobutyl)-1H-1,2,3-triazol-4-yl)methyl)-2-(hydroxymethyl)-5-methoxytetrahydro-2H-pyran-3-ol]	60	1030
CO[C@@H]1[C@@H](n2cc(-c3ccc(Br)c(F)c3F)nn2)[C@@H](O)[C@@H](CO)O[C@@H]1Cc1cn(C2(CCO)COC2)nn1 [Ex 4.1.22.]	70	1140
CO[C@@H]1[C@@H](n2cc(-c3ccc(Cl)c(F)c3F)nn2)[C@@H](O)[C@@H](CO)O[C@@H]1Cc1cn([C@@H]2COCC[C@H]2F)nn1 [Example 2.1.65.A, (2R,3R,4S,5R,6R)-4-(4-(4-chloro-2,3-difluorophenyl)-1H-1,2,3-triazol-1-yl)-6-((1-((3R,4R)-4-fluorotetrahydro-2H-pyran-3-yl)-1H-1,2,3-triazol-4-yl)methyl)-2-(hydroxymethyl)-5-methoxytetrahydro-2H-pyran-3-ol]	60	1800
CO[C@@H]1[C@@H](n2cc(-c3ccc(Cl)c(F)c3F)nn2)[C@@H](O)[C@@H](CO)O[C@@H]1Cn1cc(C2(O)CCOCC2)nn1 [Ex 2.2.35.]	60	3910
CO[C@@H]1[C@@H](n2cc(-c3ccc(Cl)c(F)c3F)nn2)[C@@H](O)[C@@H](CO)O[C@@H]1Cc1cn(C2CCOCC2(F)F)nn1 (single isomer, unassigned) [Example 2.1.89.A]	10	100
CO[C@@H]1[C@@H](n2cc(-c3ccc(Cl)c(F)c3F)nn2)[C@@H](O)[C@@H](CO)O[C@@H]1Cc1cn(C23COC(C2)C3)nn1 [Ex 2.1.44.]	30	2100
CO[C@@H]1[C@@H](n2cc(-c3ccc(Cl)c(F)c3F)nn2)[C@@H](O)[C@@H](CO)O[C@@H]1Cc1cn(C23CCC(N)(CC2)CC3)nn1 [Ex 2.2.39.]	70	6070
CO[C@@H]1[C@@H](n2cc(-c3ccc(Br)c(F)c3F)nn2)[C@@H](O)[C@@H](CO)O[C@@H]1Cn1cc(C2(C)CC2)nn1 [Ex 4.2.23.]	50	2480
CO[C@@H]1[C@@H](n2cc(-c3ccc(Br)c(F)c3F)nn2)[C@@H](O)[C@@H](CO)O[C@@H]1Cn1cc(C2(C)CCC2)nn1 [Ex 4.2.13.]	50	1930
CO[C@@H]1[C@@H](n2cc(-c3ccc(Cl)c(F)c3F)nn2)[C@@H](O)[C@@H](CO)O[C@@H]1Cc1cn(C2(CF)COC2)nn1 [Ex 2.1.52., (2R,3R,4S,5R,6R)-4-(4-(4-chloro-2,3-difluorophenyl)-1H-1,2,3-triazol-1-yl)-6-((1-(3-(fluoromethyl)oxetan-3-yl)-1H-1,2,3-triazol-4-yl)methyl)-2-(hydroxymethyl)-5-methoxytetrahydro-2H-pyran-3-ol [1-(1,2,3-tri-deoxy-2-methoxy-3-[4-(4-chloro-2,3-difluorophenyl)-1H-1,2,3-triazol-1-yl]-α-D-galacto-pyranose)-1-(1-(3-fluoromethyl-3-oxetanyl)-1H-triazol-4-yl)-methane]]	20	650
CO[C@@H]1[C@@H](n2cc(-c3ccc(Cl)c(F)c3F)nn2)[C@@H](O)[C@@H](CO)O[C@@H]1Cc1cn(C2CC(C(F)(F)F)C2)nn1 (stereo partly shown) [Ex 2.1.41.]	130	9170
CO[C@@H]1[C@@H](n2cc(-c3ccc(F)c(F)c3F)nn2)[C@@H](O)[C@@H](CO)O[C@@H]1Cc1cn(C2(CO)CC(F)(F)C2)nn1 [Ex 3.1.18.]	90	1390
CO[C@@H]1[C@@H](n2cc(-c3ccc(C)c(F)c3F)nn2)[C@@H](O)[C@@H](CO)O[C@@H]1Cn1cc(C2(O)CC2)nn1 [Ex 1.2.36.]	80	7710
CO[C@@H]1[C@@H](n2cc(-c3ccc(F)c(F)c3F)nn2)[C@@H](O)[C@@H](CO)O[C@@H]1Cc1cn(C2(C(F)F)CC2)nn1 [Ex 3.1.51.]	40	240
CO[C@@H]1[C@@H](n2cc(-c3ccc(Cl)c(F)c3F)nn2)[C@@H](O)[C@@H](CO)O[C@@H]1Cc1cn(C2CC23CC3(F)F)nn1 (stereo partly drawn) [Ex 2.1.75., (2R,3R,4S,5R,6R)-4-(4-(4-chloro-2,3-difluorophenyl)-1H-1,2,3-triazol-1-yl)-6-((1-(4,4-difluorospiro[2.2]pentan-1-yl)-1H-1,2,3-triazol-4-yl)methyl)-2-(hydroxymethyl)-5-methoxytetrahydro-2H-pyran-3-ol]	50	2780
CO[C@@H]1[C@@H](n2cc(-c3ccc(Cl)c(F)c3F)nn2)[C@@H](O)[C@@H](CO)O[C@@H]1Cc1cn([C@@H]2COC[C@@H]2F)nn1 (single isomer, unassigned) [Example 2.1.74.B, (2R,3R,4S,5R,6R)-4-(4-(4-chloro-2,3-difluorophenyl)-1H-1,2,3-triazol-1-yl)-6-((1-((3R*,4R*)-4-fluorotetrahydrofuran-3-yl)-1H-1,2,3-triazol-4-yl)methyl)-2-(hydroxymethyl)-5-methoxytetrahydro-2H-pyran-3-ol]	40	1620
